Converted amounts (≈) assume the structure as drawn. Where two headings read alike, the source gives them in different places.
Tests used:
Assay type in all cases: cell-based
[1] = test system: Staphylococcus aureus MSSA (Newman); test: broth microdilution MIC assay, Staphylococcus aureus MSSA (Newman); details: for MIC: Staphylococcus aureus; for Antibacterial activity Staphylococcus aureus (MSSA): MIC100 class score, broth microdilution
[2] = test system: Streptococcus pneumoniae (Chester, ATCC49619); test: broth microdilution MIC assay, Streptococcus pneumoniae; details: MIC100 class score, 24 h
[3] = test system: penicillin-, erythromycin- and tetracycline-resistant Streptococcus pneumoniae (ATCC 700677), ARSP; test: microbe, parasite or virus in culture
[4] = test system: Staphylococcus epidermidis (PCI 1200, ATCC12228); test: broth microdilution MIC assay, Staphylococcus epidermidis; details: ATCC12228, read-out: Antibacterial activity SE (Staphylococcus epidermidis)
[5] = test system: Staphylococcus aureus MRSA (COL); test: broth microdilution MIC assay, Staphylococcus aureus MRSA (COL); details: for MIC: Staphylococcus aureus, MRSA; for Antibacterial activity Staphylococcus aureus (MRSA): MIC100 class score, broth microdilution
[6] = test system: Human hepatocytes (HepaRG cells); test: human cytotoxicity assay in vitro (CellTiter-Glo), hepatocytes; details: cytotoxicity class
[7] = test system: Bacillus subtilis (Marburg strain, ATCC6051); test: microbe, parasite or virus in culture; details: ATCC6051, read-out: Antibacterial activity BS (Bacillus substilis)
[8] = read-out: Antibacterial activity MSSA (Staphylococcus aureus MSSA)
[9] = ATCC700677, read-out: Antibacterial activity ARSP (multi-drug resistant-SP)
[10] = read-out: Antibacterial activity MRSA (Staphylococcus aureus MRSA)
[11] = 24 h, read-out: Antibacterial activity Staphylococcus aureus (MSSA)
[12] = 24 h, read-out: Antibacterial activity Staphylococcus aureus (MRSA)

SMILES	MIC [1, 8] [µg/mL]	Antibacterial activity Streptococcus pneumoniae [2]	MIC [4] [µg/mL]	MIC [5, 10] [µg/mL]	cytotoxicity cell line H (hepatocytes) [6]	also measured
Cc1[nH]c(-c2ccc(-c3cccc(C(F)(F)F)c3)o2)nc1-c1ccc(F)cc1 [Compound 38]	1 to 3 (≈ 2.59 to 7.77 µM)	3 (MIC100 of 2-5 μg/ml)	3 to 10 (≈ 7.77 to 25.9 µM)	1 to 3 (≈ 2.59 to 7.77 µM)		MIC [3, 9]: < 1 µg/mL
Cc1[nH]c(-c2ccc(-c3cc(C(F)(F)F)ccc3Cl)o2)nc1-c1ccccc1 [Compound 40]					2	
Cc1[nH]c(-c2ccc(-c3ccc(Cl)c(C(F)(F)F)c3)o2)nc1-c1ccc(F)cc1 [Compound 42]	1 to 3 (≈ 2.38 to 7.13 µM)		3 to 10 (≈ 7.13 to 23.8 µM)			MIC ([3]; ATCC700677, MIC activity class, read-out: Antibacterial activity ARSP (multi-drug resistant-SP)): < 1 µg/mL; MIC [7]: 1 to 3 µg/mL (≈ 2.38 to 7.13 µM)
Cc1nc(-c2ccc(-c3ccc(Cl)c(OC(F)(F)F)c3)o2)[nH]c1-c1ccc(Cl)cc1 [Compound 44]	1 to 3 (≈ 2.21 to 6.62 µM)		11 to 201 (≈ 24.3 to 443 µM)	11 to 201 (≈ 24.3 to 443 µM)	2	MIC [7]: 1 to 3 µg/mL (≈ 2.21 to 6.62 µM); Antibacterial activity Staphylococcus aureus (MRSA) ([5]; 24 h): 2 (MIC100 of 11-201 μg/ml)
Cc1[nH]c(-c2ccc(-c3ccc(C(F)(F)F)cc3)s2)nc1-c1ccccc1 [Compound 46]	11 to 201 (≈ 28.6 to 523 µM)	3 (MIC100 of 2-5 μg/ml)				Antibacterial activity Staphylococcus aureus (MSSA) ([1]; 24 h): 2 (MIC100 of 11-201 μg/ml); MIC [3, 9]: 2 to 5 µg/mL (≈ 5.2 to 13 µM)
Cc1[nH]c(-c2ccc(-c3ccc(C(F)(F)F)c(Cl)c3)o2)nc1-c1ccc(F)cc1 [Compound 49]	3 to 10 (≈ 7.13 to 23.8 µM)	3 (MIC100 of 2-5 μg/ml)	11 to 201 (≈ 26.1 to 478 µM)	3 to 10 (≈ 7.13 to 23.8 µM)	3	Antibacterial activity Staphylococcus aureus (MSSA) ([1]; 24 h): 3 (MIC100 of 3-10 μg/ml); MIC [3, 9]: < 1 µg/mL; Antibacterial activity Staphylococcus aureus (MRSA) ([5]; 24 h): 2 (MIC100 of 11-201 μg/ml)
Cc1[nH]c(-c2ccc(-c3ccc(OC(F)(F)F)c(Cl)c3)o2)nc1-c1ccc(Cl)cc1 [Compound 50]	3 to 10 (≈ 6.62 to 22.1 µM)		20 to 50 (≈ 44.1 to 110 µM)	11 to 201 (≈ 24.3 to 443 µM)		MIC [1, 11]: 3 to 10 µg/mL (≈ 6.62 to 22.1 µM); MIC [5, 12]: 11 to 201 µg/mL (≈ 24.3 to 443 µM)
Cc1ccc(-c2ccc(-c3nc(-c4ccccc4)c(C)[nH]3)o2)cc1 [Compound 52]					3	MIC [5, 12]: 20 to 50 µg/mL (≈ 63.6 to 159 µM)
CCc1ccc(-c2ccc(-c3nc(-c4ccccc4)c(C)[nH]3)o2)cc1 [Compound 53]	3 to 10 (≈ 9.13 to 30.4 µM)			20 to 50 (≈ 60.9 to 152 µM)	3	MIC [1, 11]: 3 to 10 µg/mL (≈ 9.13 to 30.4 µM); MIC [5, 12]: 20 to 50 µg/mL (≈ 60.9 to 152 µM)
Cc1[nH]c(-c2cc(C)n(-c3ccc(C(C)C)cc3)c2C)nc1-c1ccccc1 [Compound 58]				20 to 50 (≈ 54.1 to 135 µM)	3	
Cc1[nH]c(-c2cc(C)n(-c3ccc4c(c3)CCC4)c2C)nc1-c1ccccc1 [Compound 59]		3 (MIC100 of 2-5 μg/ml)			2	
Cc1ccccc1-c1ccc(-c2nc(-c3ccccc3)c(C)[nH]2)o1 [Compound 61]					3	
Cc1cccc(C)c1-c1ccc(-c2nc(-c3ccccc3)c(C)[nH]2)o1 [Compound 62]					3	
FC(F)(F)Oc1ccccc1-c1ccc(-c2ncc(-c3ccccc3)[nH]2)o1 [Compound 63]	3 to 10 (≈ 8.1 to 27 µM)	3 (MIC100 of 2-5 μg/ml)	3 to 10 (≈ 8.1 to 27 µM)	3 to 10 (≈ 8.1 to 27 µM)	2	Antibacterial activity Staphylococcus aureus (MSSA) ([1]; 24 h): 3 (MIC100 of 3-10 μg/ml)
FC(F)(F)c1ccccc1-c1ccc(-c2nc(Cl)c(-c3ccccc3)[nH]2)o1 [Compound 65]	11 to 201 (≈ 28.3 to 517 µM)				2	Antibacterial activity Staphylococcus aureus (MSSA) ([1]; 24 h): 2 (MIC100 of 11-201 μg/ml)
FC(F)(F)Oc1ccccc1-c1ccc(-c2nc(-c3ccccc3Cl)c[nH]2)o1 [Compound 67]		3 (MIC100 of 2-5 μg/ml)	11 to 201 (≈ 27.2 to 497 µM)		2	MIC [3, 9]: 6 to 10 µg/mL (≈ 14.8 to 24.7 µM)
Cc1nc(-c2ccc(-c3ccccc3N(C)C)o2)[nH]c1-c1ccccc1 [Compound 71]					3	
Cc1[nH]c(-c2coc(-c3ccccc3C(F)(F)F)c2)nc1-c1ccccc1 [Compound 72]		2 (MIC100 of 6-10 μg/ml)			3	
Cc1nc(-c2ccc(-c3ccc(F)cc3F)o2)[nH]c1-c1ccc(O)cc1 [Compound 80]		3 (MIC100 of 2-5 μg/ml)				Antibacterial activity Staphylococcus aureus (MSSA) ([1]; 24 h): 3 (MIC100 of 3-10 μg/ml); Antibacterial activity Staphylococcus aureus (MRSA) ([5]; 24 h): 2 (MIC100 of 11-201 μg/ml)
CCCc1[nH]c(-c2ccc(-c3ccc(O)cc3C(F)(F)F)o2)nc1C [Compound 110]		3 (MIC100 of 2-5 μg/ml)				Antibacterial activity Staphylococcus aureus (MRSA) ([5]; 24 h): 3 (MIC100 of 3-10 μg/ml)

Source: patent US10322110B2, “Imidazole-based antimicrobial agents” (priority 2014, dated 2019)
